Series [1] has as its system Acinetobacter baumannii DSM 30008. It is filed as cell-based. As for the experimental part: (§1) Stock solutions were kept at +4° C., light protected.
(§2) The selective antimicrobial activities of the peptides were determined in 96-well plates (Greiner, polystyrene) by the standard NCCLS broth microdilution method (National Committee for Clinical Laboratory Standards 1993. Methods for dilution antimicrobial susceptibility tests for bacteria that grow aerobically, 3rd ed. Approved standard M7-A6; National Committee for Clinical laboratory standards, Wayne, Pa.) with slight modifications. Inocula of the microorganisms were diluted into Mueller-Hinton II (MH, cation adjusted) broth and compared with a 0.5 McFarland standard to give appr. 10^6 colony forming units (CFU)/mL. Aliquots (90 μl) of inoculate were added to 10 μl of MH broth+P-80 (Polysorbate 80, 0.002% final concentration) containing the peptide in serial two-fold dilutions. The following microorganisms were used to determine antibiotic selectivity of the peptides: Escherichia coli ATCC 25922, Klebsiella pneumoniae ATCC 13883 and Acinetobacter baumannii DSM 30008.

Series [2] concerns Escherichia coli ATCC 25922. Format: cell-based. As for the experimental part:
as §1, §2

Series [3] deals with Klebsiella pneumoniae ATCC 13883. It is filed as cell-based. As for the experimental part:
as §1, §2

For series [4], the system named is human red blood cells (hRBC). Nature of the series: Hemolysis: hemolytic activity at 100 μg/mL, 1 h at 37° C. As for the experimental part: Lyophilized peptides were weighed on a Microbalance (Mettler MT5) and dissolved in sterile water to a final concentration of 1 mg/mL. Stock solutions were kept at +4° C., light protected.
The peptides were tested for their hemolytic activity against human red blood cells (hRBC). Fresh hRBC were washed three times with phosphate buffered saline (PBS) and centrifuged for 5 min at 3000×g. Compounds (100 μg/mL) were incubated with 20% hRBC (v/v) for 1 h at 37° C. and shaking at 300 rpm. The final erythrocyte concentration was approximately 0.9×10^9 cells/mL. A value of 0% and 100% cell lyses, respectively, was determined by incubation of hRBC in the presence of PBS containing 0.001% acetic acid and 2.5% Triton X-100 in H2O, respectively. The samples were centrifuged, the supernatants were 8-fold diluted in PBS buffer and the optical densities (OD) were measured at 540 nm.
Percent hemolysis was calculated as follows: (OD540peptide/OD540H2O)×100%.

Where [5] appears, read: Mueller-Hinton II broth, 18-20 hours at 35° C.

Structures are written as SMILES. Read-outs that look alike come from different tables or passages of the source. Where a SMILES comes first, the peptide text is derived from it. Bridges are numbered along the chain shown (N, C = ends). [ ]: non-standard residue; d: D form. Tle = CC(C)(C)[C@H](N)C(=O)O; dDab = NCC[C@@H](N)C(=O)O; Orn = NCCC[C@H](N)C(=O)O; Dab = NCC[C@H](N)C(=O)O

`CC(C)C[C@@H]1NC(=O)[C@H](CCCNC(=N)N)NC(=O)[C@@H](CCN)NC(=O)[C@H](C(C)C)NC(=O)[C@@H]2CSSC[C@H](NC1=O)C(=O)N[C@@H](Cc1ccc(O)cc1)C(=O)N[C@@H](CC(N)=O)C(=O)N[C@@H](CCCN)C(=O)N[C@H](CCN)C(=O)N[C@@H](CCN)C(=O)N[C@@H](Cc1c[nH]c3ccccc13)C(=O)N[C@@H](CO)C(=O)N[C@@H](Cc1ccc(O)cc1)C(=O)N2` [Example 10, cyclo(-Leu-Cys-Tyr-Asn-Orn-^DDab-Dab-Trp-Ser-Tyr-Cys-Val-^DDab-Arg-)] (HELM PEPTIDE1{C.V.[NCC[C@@H](N[*:1])C(=O)[*:2]].R.L.C.Y.N.[Orn].[NCC[C@@H](N[*:1])C(=O)[*:2]].[Dab].W.S.Y}$PEPTIDE1,PEPTIDE1,1:R3-6:R3|PEPTIDE1,PEPTIDE1,1:R1-14:R2$$$V2.0): the “Acinetobacter baumannii DSM 30008 MIC” value in series [1] (DSM 30008) came to 0.5 µg/mL. Further, the “Escherichia coli ATCC 25922 MIC” value in series [2] (ATCC 25922) amounted to 0.5 µg/mL. Moreover, the “Klebsiella pneumoniae ATCC 13883 MIC” value in series [3] (ATCC 13883) was 1 µg/mL. In addition, the “Hemolysis at 100 μg/mL” value in series [4] (red cells of human, 1 h, 100) is 1%.

Regarding `CC(C)C[C@@H]1NC(=O)[C@H](CCCNC(=N)N)NC(=O)[C@@H](CCN)NC(=O)[C@H](Cc2ccc(O)cc2)NC(=O)[C@@H]2CSSC[C@H](NC1=O)C(=O)N[C@@H](Cc1ccc(O)cc1)C(=O)N[C@@H](CC(N)=O)C(=O)N[C@@H](CCCN)C(=O)N[C@H](CCN)C(=O)N[C@@H](CCN)C(=O)N[C@@H](Cc1c[nH]c3ccccc13)C(=O)N[C@@H](CO)C(=O)N[C@@H](Cc1ccc(O)cc1)C(=O)N2` [Example 11, cyclo(-Leu-Cys-Tyr-Asn-Orn-^DDab-Dab-Trp-Ser-Tyr-Cys-Tyr-^DDab-Arg-)] (HELM PEPTIDE1{C.Y.N.[Orn].[NCC[C@@H](N[*:1])C(=O)[*:2]].[Dab].W.S.Y.C.Y.[NCC[C@@H](N[*:1])C(=O)[*:2]].R.L}$PEPTIDE1,PEPTIDE1,1:R3-10:R3|PEPTIDE1,PEPTIDE1,1:R1-14:R2$$$V2.0), in series [1] (DSM 30008), the “Acinetobacter baumannii DSM 30008 MIC” value came to 0.5 µg/mL. The “Escherichia coli ATCC 25922 MIC” value in series [2] (ATCC 25922) was found to be 0.25 µg/mL. The “Klebsiella pneumoniae ATCC 13883 MIC” value in series [3] (ATCC 13883) was found to be 0.25 µg/mL. Also, the “Hemolysis at 100 μg/mL” value in series [4] (red cells of human, 1 h, 100) worked out at 4%.

Take `CC[C@H](C)[C@@H]1NC(=O)[C@H](CCCNC(=N)N)NC(=O)[C@@H](CCN)NC(=O)[C@H](CO)NC(=O)[C@@H]2CSSC[C@H](NC1=O)C(=O)N[C@@H](Cc1ccc(O)cc1)C(=O)N[C@@H](CCN)C(=O)N[C@@H](CCCN)C(=O)N[C@H](CCN)C(=O)N[C@@H](CCN)C(=O)N[C@@H](Cc1c[nH]c3ccccc13)C(=O)N[C@@H](CCN)C(=O)N[C@@H](C(C)(C)C)C(=O)N2` [Example 12, cyclo(-Ile-Cys-Tyr-Dab-Orn-^DDab-Dab-Trp-Dab-tBuGly-Cys-Ser-^DDab-Arg-)] (cyclo(CS[dDab]RICY[Dab][Orn][dDab][Dab]W[Dab][Tle]); disulfide 1-6): the “Acinetobacter baumannii DSM 30008 MIC” value in series [1] (DSM 30008) was 1 µg/mL. Also, the “Escherichia coli ATCC 25922 MIC” value in series [2] (ATCC 25922) amounted to 0.5 µg/mL. Also, in series [3] (ATCC 13883), the “Klebsiella pneumoniae ATCC 13883 MIC” value came out at 1 µg/mL. Also, the “Hemolysis at 100 μg/mL” value in series [4] (red cells of human, 1 h, 100) is 1%.

On to `CC[C@H](C)[C@@H]1NC(=O)[C@H](C)NC(=O)[C@@H](CCN)NC(=O)[C@H](CO)NC(=O)[C@@H]2CSSC[C@H](NC1=O)C(=O)N[C@@H](Cc1ccc(O)cc1)C(=O)N[C@@H](CCN)C(=O)N[C@@H](CCCN)C(=O)N[C@H](CCN)C(=O)N[C@@H](CCN)C(=O)N[C@@H](Cc1c[nH]c3ccccc13)C(=O)N[C@@H](CCN)C(=O)N[C@@H](C(C)(C)C)C(=O)N2` [Example 13, cyclo(-Ile-Cys-Tyr-Dab-Orn-^DDab-Dab-Trp-Dab-tBuGly-Cys-Ser-^DDab-Ala-)] (cyclo(AICY[Dab][Orn][dDab][Dab]W[Dab][Tle]CS[dDab]); disulfide 3-12), for which, in series [1] (DSM 30008), the “Acinetobacter baumannii DSM 30008 MIC” value was 2 µg/mL. Moreover, the “Escherichia coli ATCC 25922 MIC” value in series [2] (ATCC 25922) is 0.5 µg/mL. Moreover, the “Klebsiella pneumoniae ATCC 13883 MIC” value in series [3] (ATCC 13883) was 8 µg/mL. Also, the “Hemolysis at 100 μg/mL” value in series [4] (red cells of human, 1 h, 100) turned out to be 1%.

Take `CC[C@H](C)[C@@H]1NC(=O)[C@@H]2CCCN2C(=O)[C@@H](CCN)NC(=O)[C@H](CO)NC(=O)[C@@H]2CSSC[C@H](NC1=O)C(=O)N[C@@H](Cc1ccc(O)cc1)C(=O)N[C@@H](CCN)C(=O)N[C@@H](CCCN)C(=O)N[C@H](CCN)C(=O)N[C@@H](CCN)C(=O)N[C@@H](Cc1c[nH]c3ccccc13)C(=O)N[C@@H](CCN)C(=O)N[C@@H](C(C)(C)C)C(=O)N2` [Example 14, cyclo(-Ile-Cys-Tyr-Dab-Orn-^DDab-Dab-Trp-Dab-tBuGly-Cys-Ser-^DDab-Pro-)] (cyclo(CS[dDab]PICY[Dab][Orn][dDab][Dab]W[Dab][Tle]); disulfide 1-6): the “Acinetobacter baumannii DSM 30008 MIC” value in series [1] (DSM 30008) worked out at 1 µg/mL. Moreover, the “Escherichia coli ATCC 25922 MIC” value in series [2] (ATCC 25922) is 0.5 µg/mL. The “Klebsiella pneumoniae ATCC 13883 MIC” value in series [3] (ATCC 13883) was determined as 1 µg/mL. The “Hemolysis at 100 μg/mL” value in series [4] (red cells of human, 1 h, 100) was found to be 1%.

In the case of `CC(C)[C@@H]1NC(=O)[C@@H]2CCCN2C(=O)[C@@H](Cc2ccc(O)cc2)NC(=O)[C@H]([C@@H](C)O)NC(=O)[C@@H]2CSSC[C@H](NC1=O)C(=O)N[C@@H](Cc1ccc(O)cc1)C(=O)N[C@@H](CCN)C(=O)N[C@@H](CN)C(=O)N[C@@H](CCN)C(=O)N[C@@H](CCN)C(=O)N[C@@H](Cc1c[nH]c3ccccc13)C(=O)N[C@@H](CCN)C(=O)N[C@@H](C(C)(C)C)C(=O)N2` [Example 15, cyclo(-Val-Cys-Tyr-Dab-Dap-Dab-Dab-Trp-Dab-tBuGly-Cys-Thr-^DTyr-Pro-)] (HELM PEPTIDE1{C.T.[dY].P.V.C.Y.[Dab].[NC[C@H](N[*:1])C(=O)[*:2]].[Dab].[Dab].W.[Dab].[CC(C)(C)[C@H](N[*:1])C(=O)[*:2]]}$PEPTIDE1,PEPTIDE1,1:R3-6:R3|PEPTIDE1,PEPTIDE1,1:R1-14:R2$$$V2.0), the “Acinetobacter baumannii DSM 30008 MIC” value in series [1] (setting [5]) is 0.5 µg/mL. For the same molecule, the “Escherichia coli ATCC 25922 MIC” value in series [2] (setting [5]) came out at 0.5 µg/mL. For the same molecule, the “Klebsiella pneumoniae ATCC 13883 MIC” value in series [3] (setting [5]) was determined as 0.25 µg/mL. The “Hemolysis at 100 μg/mL” value in series [4] (100 μg/mL, 20% hRBC, 1 h at 37° C.) came out at 2%.

`CC[C@H](C)[C@@H]1NC(=O)[C@H](Cc2ccc(O)cc2)NC(=O)[C@@H](C)NC(=O)[C@H](CO)NC(=O)[C@@H]2CSSC[C@H](NC1=O)C(=O)N[C@@H](Cc1ccc(O)cc1)C(=O)N[C@@H](CCN)C(=O)N[C@@H](CCCN)C(=O)N[C@H](CCN)C(=O)N[C@@H](CCN)C(=O)N[C@@H](Cc1c[nH]c3ccccc13)C(=O)N[C@@H](CCN)C(=O)N[C@@H](C(C)(C)C)C(=O)N2` [Example 16, cyclo(-Ile-Cys-Tyr-Dab-Orn-^DDab-Dab-Trp-Dab-tBuGly-Cys-Ser-^DAla-Tyr-)] (HELM PEPTIDE1{C.S.[dA].Y.I.C.Y.[Dab].[Orn].[NCC[C@@H](N[*:1])C(=O)[*:2]].[Dab].W.[Dab].[CC(C)(C)[C@H](N[*:1])C(=O)[*:2]]}$PEPTIDE1,PEPTIDE1,1:R3-6:R3|PEPTIDE1,PEPTIDE1,1:R1-14:R2$$$V2.0): in series [1] (DSM 30008), the “Acinetobacter baumannii DSM 30008 MIC” value is 1 µg/mL. The “Escherichia coli ATCC 25922 MIC” value in series [2] (ATCC 25922) came out at 0.5 µg/mL. Further, in series [3] (ATCC 13883), the “Klebsiella pneumoniae ATCC 13883 MIC” value worked out at 0.5 µg/mL. The “Hemolysis at 100 μg/mL” value in series [4] (red cells of human, 1 h, 100) is on record as 1%.
